Common to all, as to test: BRET β-arrestin-2 biosensor assay
Common to all, as to format: cell-based
On the technique in general: In BRET a luciferase serves as donor, and the signal depends on an acceptor being close.

The target in experiment [1] is T1, human KOR E209A (Homo sapiens, UniProt P41145, E209A).
T1 construct: FLAG; expressed in transfected cells; host or cells: HEK293 / HEK293T, transient
The following applies: KOR E209A.

Experiment [2] has as its target T2, human KOR Q115A (Homo sapiens, UniProt P41145, Q115A).
T2 construct: FLAG; expressed in transfected cells; host or cells: HEK293 / HEK293T, transient

The target in experiment [3] is T3, human KOR F293A (Homo sapiens, UniProt P41145, F293A).
T3 construct: FLAG; expressed in transfected cells; host or cells: HEK293 / HEK293T, transient
T3 sequence (P41145 whole entry F293A): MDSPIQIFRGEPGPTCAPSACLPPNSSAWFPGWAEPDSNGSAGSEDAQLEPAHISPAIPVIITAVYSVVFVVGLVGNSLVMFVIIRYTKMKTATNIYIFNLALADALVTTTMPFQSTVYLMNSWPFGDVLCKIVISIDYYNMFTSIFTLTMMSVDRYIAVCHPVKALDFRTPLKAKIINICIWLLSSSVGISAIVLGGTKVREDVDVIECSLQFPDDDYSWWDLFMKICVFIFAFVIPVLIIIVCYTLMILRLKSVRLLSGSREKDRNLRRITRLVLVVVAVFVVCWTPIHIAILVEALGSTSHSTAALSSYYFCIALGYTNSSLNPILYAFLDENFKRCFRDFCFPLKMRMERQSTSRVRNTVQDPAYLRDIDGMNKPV

From PMC10698194 (Nature Communications, 2023) come the findings set out here.

Bridge positions count the residues as written; N and C are the ends. Square brackets hold non-standard residues; d marks the D form. Peptide text beside a SMILES is read from it. * marks the point of attachment. X1 = C=CCN1CC[C@]23c4c5ccc(O)c4O[C@H]2[C@H](N*)CC[C@@]3(O)[C@H]1C5

T1 sequence (P41145 whole entry E209A): as the sequence (P41145 whole entry F293A) above, with E209A, A293F counted along it
T2 sequence (P41145 whole entry Q115A): as the sequence (P41145 whole entry F293A) above, with Q115A, A293F counted along it

On to `C=CCN1CC[C@]23c4c5ccc(O)c4O[C@H]2[C@H](NC(=O)[C@@H](Cc2ccccc2)NC(=O)[C@@H](NC(=O)[C@@H]2CSCC(=O)N[C@@H](Cc4ccc(O)cc4)C(=O)N[C@@H](C)C(=O)N[C@H](Cc4ccc(O)cc4)C(=O)N[C@@H]([C@@H](C)O)C(=O)N[C@@H]([C@@H](C)O)C(=O)N2)[C@@H](C)O)CC[C@@]3(O)[C@H]1C5` [DNCP-β-NalA(1)] ({CH2CO}-YA[dY]TTCT[dF]-X1; thioether N-6), for which the figures for the Emax in experiment [1], in experiment [2] and in experiment [3] were 87.3 ± 1.31%, 60 ± 1.71% and 26.5 ± 1.01%, respectively.
